Assay results taken from patent publication US20080234244A1, “CU[…] AND USES THEREOF” (priority 2007, published 2008).

Legend:
[1] = system: Human leukemia cell lines CCRF-CEM, K562, MOLT-4, RPMI-8226 and SR; experiment: Cell proliferation assay using SRB, 5 human leukemia cell lines; format: cell-based; settings: 48 hours treatment, range over the 5 cell lines, read-out: GI50 (growth inhibition), all leukemia cell lines
Method: (§1) Human leukemia cell lines CCRF-CEM, K562, MOLT-4, RPMI-8226 and SR, purchased from the National Cancer Institute (NCI), were cultured in RPMI 1640 medium supplemented with 5% (v/v) fetal […] and 100 units/ml penicillin and 100 units/ml streptomycin in a humidified 5% CO2 atmosphere at 37° C.
(§2) All 5 human leukemia cells were screened by the cell proliferation assay using SRB to quantitative cell protein mass following cucurbitacin B treatment. The experiments were repeated in triplicate. Appropriate number of cells (depends on the doubling time of cells) were seeded into a 96-well tissue culture plate and growth in the indicated medium in presence of different dosages of cucurbitacin B for 2 days. Afterwards 25 μl 80% TCA reagent was added into each well to fix the cells and the plates were incubated at 4° C. at least for 1 hour. Then the plates were washed with tap water and air dried. […] The plates were air dried and dissolved by 100 μl 10 mM Trizma-base solution and the absorbance was measured at 515 nm using FLUOstar OPTIMA equipment.
(§3) Appropriate number of cell density were seeded into a 96 well culture plate and treated with different doses of cucurbitacin B for 2 days. The growth inhibition effects of cucurbitacin B on the cells were detected using SRB.

K562 = experiment: Cell proliferation assay using SRB, K562; format: cell-based; settings: Homo sapiens, K562, 48 hours treatment, read-out: GI50 (growth inhibition)
Method: as §1, §2, §3

K562 cells [2] = experiment: Flow cytometry for apoptosis analysis (Annexin V / PI); format: cell-based, human; settings: 80 nM, 48 hours, K562, Anx.V/PI
Method: (§4) 10^5/ml K562 cells were treated with cucurbitacin B in the presence of complete medium containing 10% FBS for 48 hours. The changes in cell morphology were visualized using Leica DMIL (Leica Microsystem). Cells were harvested and rinsed twice with ice-cold PBS (pH7.4) and a total 2.5×10^5 K562 cells were stained with 10 μl Annexin V and 10 μl propidium iodide in 100 μl 1× binding buffer for 15 minutes in dark and then subjected to apoptosis analysis with FACSCalibar Flow cytometer system (FACS Calibur BD Flow Cytometer).
Appropriate number of cell density were seeded into T-25 culture flask and treated with different doses of cucurbitacin B for 2 days. The apoptotic effects of cucurbitacin B on the cells were detected using Flow Cytometry analysis after stained with Anx.V and PI for 15 minutes. […] Cucuribitacin B induced apoptosis in a dose dependent manner, among them, 80 nM induced the highest apoptotic effect in K562 cells, with over 50% cells in apoptotic population and 10% cells in the necrotic population (late apoptotic and necrotic phase). The effect of cucurbitacin B on apoptosis and cell cycle profile in K562 cells were analyzed using flow cytometry, as depicted in FIG. 3.

K562 cells [3] = experiment: Cell morphology by microscopy (Leica DMIL, 400x); format: cell-based, human; settings: 48 hours
Method: as §4
After 48 hours of cucurbitacin B treatment, the cells were viewed using a Leica DMIL microscope at 400× magnification. […] However, the treated cells lost the rounded shape and shrank in size at the highest dose of cucurbitacin B used (80 nM).

K562 cells [4] = experiment: Flow cytometry for cell cycle analysis (PI); format: cell-based, human; settings: 80 nM, 48 hours, K562, serum starved 24 hours
Method: K562 cells were serum starved for 24 hours prior to cucurbitacin B treatment. After 48 hours of treatment, the cells were collected and rinsed twice with phosphate-buffer saline and fixed with 80% ice-cold ethanol for 1 hour at 4° C. overnight.
Then, the cells were stained with propidium iodine at 1 mg/ml for 15 minutes at room temperature. The stained cells were analyzed by flow cytometry (FACS Calibur BD Flow Cytometer)
Appropriate numbers of cell density were serum starved for 24 hours prior to treatment with different doses of cucurbitacin B for 2 days. The cell cycle analysis profile of K562 cells after cucurbitacin B treatment were detected using Flow Cytometry analysis after fixed with 80% ice-cold ethanol at 4° C. and then stained with PI for 15 minutes.

[5] = system: Stat3 activation in K562 cells; experiment: Western blot of phosphorylated and total Stat3; format: cell-based, human; settings: 50 μM
Method: (§5) K562 leukemia cells were serum starved for 18 hours prior to cucurbitacin B treatment. The cells were incubated at a 75-mm culture flask filled with 10 ml growth medium (RPMI with 10% FBS and 1% PS) at the cell density of 1×10^5 cells/ml in the presence or absence of cucurbitacin B for various time intervals. The drug treatment were terminated by centrifugation at 1500 rpm for 5 minutes and the cells were rinsed twice with phosphate-buffered saline and lysed at 4° C. in a lysis buffer containing 50 mM Tris-HCl, pH7.5, […], 5 mM EDTA, 40 mM NaP2O7, 1% Triton X-100, 1 mM dithiothreitol, […], 100 μM phenylmethylsulfonyl fluoride, 2 μg/ml leupeptin, 4 μg/ml aprotinin and 0.7 μg/ml pepstatin. The insoluble protein lysate were removed by centrifugation for 10 minutes at 13000 rpm. Fifteen micrograms of protein lysate was resolved using SDS-polyacryamide gel electrophoresis (PAGE) (usually 8%-12% polyacrylamide gel) and then subjected to western blot analysis. Western blots were performed with antibodies specific for phosphorylated and total Stat3, c-Raf, Mek, and Erk. The blots were developed with the Enhanced Chemiluminescence Plus (ECL Plus) detection system (Amersham).
15 μg cell lysate of each sample was separated in 8% SDS-PAGE followed by immuno-blotting with anti-Stat3 antibodies to detect the phosphorylated form of Stat3 as well as its total expression level.
Cells were serum starved for 18 hours followed by treated with 50 μM cucurbitacin B for 10 minutes, 30 minutes, 1 hour and 4 hours, respectively. 15 μg cell lysate of each sample was separated in 8% SDS-PAGE followed by immuno-blotting with anti-Stat3 antibodies to detect the phosphorylated form of Stat3 as well as its total expression level.

[6] = system: c-Raf activation in K562 cells; experiment: Western blot of phosphorylated and total c-Raf; format: cell-based, human; settings: 50 μM, 5 minutes treatment
Method: as §5, with “The blots were developed with the Enhanced Chemiluminescence Plus (ECL Plus) detection system (Amersham).” left out
(§6) In order to further investigate if cucurbitacin B block the Stat3 activation is truly through Erk pathway in K562 cells, the ability of cucurbitacin B to inhibit the Ras/Raf/Mek/Erk pathway was determined by measuring Ras-GTP, phosphorylation of c-Raf, Mek1/2, Erk1/2 and Elk-1 in K562 cells. […]

[7] = system: Mek1/2 activation in K562 cells; experiment: Western blot of phosphorylated and total Mek1/2; format: cell-based, human; settings: 50 μM, 5 minutes treatment
Method: as §5, with “The blots were developed with the Enhanced Chemiluminescence Plus (ECL Plus) detection system (Amersham).” left out
as §6

[8] = system: Erk1/2 activation in K562 cells; experiment: Western blot of phosphorylated and total Erk1/2; format: cell-based, human; settings: 50 μM, 5 minutes treatment
Method: as §5, with “The blots were developed with the Enhanced Chemiluminescence Plus (ECL Plus) detection system (Amersham).” left out
as §6

[9] = system: Elk-1 activation in K562 cells; experiment: Phosphorylation of Elk-1; format: cell-based, human; settings: 50 μM, 5 minutes treatment
Method: (§7) In order to further investigate if cucurbitacin B block the Stat3 activation is truly through Erk pathway in K562 cells, the ability of cucurbitacin B to inhibit the Ras/Raf/Mek/Erk pathway was determined by measuring Ras-GTP, phosphorylation of c-Raf, Mek1/2, Erk1/2 and Elk-1 in K562 cells. The cells were incubated with 50 μM cucurbitacin B for the indicated time intervals (2 minutes, 5 minutes, 10 minutes, 30 minutes, 1 hour and 4 hours). 15 μg cell lysates were subjected to western blot analysis for phosphorylation and total c-Raf, Mek1/2, Erk1/2.

[10] = system: Raf/Mek/Erk pathway in K562 cells; experiment: Western blot, Raf/Mek/Erk pathway as a whole; format: cell-based, human; settings: 50 μM, after 4 hours of treatment
Method: as §5, with “The blots were developed with the Enhanced Chemiluminescence Plus (ECL Plus) detection system (Amersham).” left out
as §6

[11] = system: Ras-GTP activation in K562 cells; experiment: GTPase pull-down assay (GST-Raf1-RBD), Ras-GTP content; format: cell-based, human; settings: 50 μM, 2 minutes to 4 hours
Method: Lysate with 500 μg protein were used to determined the Ras-GTP content by the Glutathione S-transferase (GST)-RBD (Ras-binding domain of Raf) pull down assay. The treated and control cells were lysed in lysis buffer (25 mMTris-HCl, pH7.5, 150 mM NaCl, 5 mMMgCl2, 1% NP-40, 1 mM DTT and 5% glycerol) for 5 minutes at 4° C. Soluble cell lysates were obtained by centrifuged at 17000 g for 5 minutes. 500 μg cell lysate were collected and incubated with 80 μg GST-Raf1-RBD in 50 mM Tris-HCl, pH7.2, 150 mMNaCl, 0.5% Triton X-100, 5 mMMgCl2, 1 mMDTT and 10% glycerol for 1 hour at 4° C. The beads were washed with lysis buffer for 3 times and then resuspended and boiled in 2× sample buffer at 100° C. for 5 minutes. 25 μl supernatants were collected by centrifuged at 7200 g for 2 minutes and then resolved in 15% SDS-PAGE followed by western blot analysis using anti-Ras antibody.
as §7, with “15 μg cell lysates were subjected to western blot analysis for phosphorylation and total c-Raf, Mek1/2, Erk1/2.” left out

CC(=O)OC(C)(C)/C=C/C(=O)[C@](C)(O)C1[C@H](O)C[C@@]2(C)C3CC=C4C(C[C@H](O)C(=O)C4(C)C)[C@]3(C)C(=O)C[C@]12C (some centres unmarked) [cucurbitacin B]
GI50 [1]: 15.6 to 35.3 nM | GI50 (K562): 15.6 nM | cells in apoptotic population (K562 cells [2]): over 50% | cells in the necrotic population (late apoptotic and necrotic phase) (K562 cells [2]): 10% | change in cell morphology (K562 cells [3]; 20 nM and 40 nM): increase in cell size | change in cell morphology (K562 cells [3]; 80 nM): shrinkage of cell size | percentage of cells in the G2/M phase (K562 cells [4]): 70% | time of peak inhibition of Stat3 activation [5]: 4 h | inhibition of Stat3 activation, time course ([5]; 10 minutes to 30 minutes): No significant change | inhibition of Stat3 activation, time course ([5]; 1 hour treatment): inhibited Stat3 activation | inhibition of Stat3 activation (phospho-Stat3) ([5]; 4 hours, only the highest of 1, 5, 50 μM): significant inhibited | inhibition of activation of c-Raf [6]: significantly inhibited | inhibition of activation of Mek1/2 [7]: significantly inhibited | inhibition of activation of Erk1/2 [8]: significantly inhibited | inhibition of activation of Elk-1 [9]: significantly inhibited | inhibition of the Raf/Mek/Erk pathway [10]: Complete inhibition | change of Ras-GTP activation [11]: no significant change
